Test results published in patent publication US11261429B2, “Enriched and expanded human cord blood stem cells for treatment of hematological disorders” (ICAHN SCHOOL OF MEDICINE AT MOUNT SINAI, priority 2013, dated 2022).

Legend:
CB CD34+ cells [1] = assay: Migration assay towards SDF1 (Transwell); format: cell-based, human; settings: SDF1 100 ng/ml, after 16 and 48 hours, versus control
Experimental: The migratory behavior of CB CD34+ cells was evaluated as previously described using 6.5 mm diameter, 5 μm pore Transwell plates (Costar) (Shivtiel et al., “CD45 Regulates Homing and Engraftment of Immature Normal and Leukemic Human Cells in Transplanted immunodeficient Mice,” Exp. Hematol. 39(12):1161-1170 (2011), which is hereby incorporated by reference in its entirety). The lower compartments of the Transwells were filled with StemLine II SF medium supplemented with 100 ng/ml of stromal-derived factor 1 (SDF1) (R&D Systems). The Transwell filters were coated with Matrigel for 30 minutes at 37° C. Re-isolated CD34+ cells (1×10^5) from the control and VPA-containing cultures were plated on the Matrigel-coated filters in 100 μl of Stemline II media. After 16 and 48 hours, cells that migrated to the lower compartment were enumerated, and the percentage of migration was calculated as follows: (number of cells migrated/total number of cells plated)×100.

HDAC3 = assay: HDAC protein levels in CB-MNCs, Western blot densitometry; format: cell-based, human; settings: 24 hr, SCR 8 μM, C433 80 μM, VPA 1.25 mM
Description: (§2) Cellular proteins were separated by SDS-PAGE using Novex (Invitrogen) and transferred by iBlot (Invitrogen). The membranes were probed with mAbs against individual histone deacetylases (HDAC1, HDAC2, HDAC3, HDAC4, HDAC5, HDAC6, and β-actin; Cell Signaling Technology) and developed using a chemiluminescence system with HRP-conjugated secondary antibodies (Amersham Biosciences) according to the manufacturer's instructions.

HDAC4 = assay: as above; format: cell-based, human; settings: 24 hr, SCR 8 μM, C433 80 μM, VPA 1.25 mM
Description: as §2

HDAC6 = assay: as above; format: cell-based, human; settings: 24 hr, SCR 8 μM, C433 80 μM, VPA 1.25 mM
Description: as §2

class I and II HDAC = assay: HDAC protein levels in CB-MNCs, Western blot, all HDACs examined; format: cell-based, human; settings: after 2 hours of treatment
Description: as §2

NANOG = assay: Pluripotency protein expression in re-isolated CD34+ cells, mAb staining and flow cytometry; format: cell-based, human; settings: 7 days
Experimental: (§1) PCs and re-isolated, cultured CD34+ cells from control cultures and cultures containing VPA were fixed with methanol-free formaldehyde (2.8%) for 10 minutes at 37° C., briefly chilled on ice, and permeabilized with 100% ice-cold methanol. Cells were further incubated on ice for 20 minutes and blocked with incubation buffer (PBS containing 0.5% BSA) for 10 minutes and stained for SOX2 and OCT4 with an FITC-conjugated mAb or isotype controls for an hour at room temperature. Cells were also stained with a rabbit mAb for NANOG, followed by an FITC-conjugated anti-rabbit secondary antibody, and cells were washed and analyzed by flow cytometry.

OCT4 = assay: as above; format: cell-based, human; settings: 7 days
Experimental: as §1

SOX2 = assay: as above; format: cell-based, human; settings: 7 days
Experimental: as §1

CB CD34+ cells [2] = assay: Effect of siRNA transfection on cell numbers and CD34+/CD34+CD90+ cells; format: cell-based, human; settings: VPA culture, 72 hrs after transfection
Experimental: CB CD34+ cells were treated with VPA under SF culture conditions. VPA-treated cells were transfected with individual SOX2, OCT4, NANOG, GAPDH, and scrambled siRNA or with a combination of SOX2, OCT4, and NANOG Silencer Select siRNAs (Invitrogen, CA). A GFP plasmid was included to determine the transfection efficiency according to the manufacturer's instructions for the Neon transfection system (Invitrogen).
After 72 hours of VPA treatment, cells (0.5×10^6 to 1×10^6) were washed in PBS and suspended in 8 μl of Neon resuspension buffer R. Individual siRNAs (2 μl, 10-30 nM) or a combination of SOX2, OCT4, NANOG (SON), or pcDNA6.2/EmGFP plasmid (200 ng; Invitrogen) were mixed with the 8 μl of cells according to the manufacturer's instructions. Cells were pulsed three times with a voltage of 1,400 and a width of 20 ms and immediately transferred to pre-warmed media supplemented with cytokines plus VPA. […]
In addition, cells treated with scrambled or combined SON siRNA were stained using human CD34 and CD90 mAbs, and the percentages of CD34+ and CD34+CD90+ cells were determined by flow cytometric analysis. […] SOX2, OCT4, NANOG, and ZIC3 protein expression levels following SON siRNA-mediated pluripotency gene knockdown were assessed by confocal microscopy as described above.

NSG mice = assay: Limiting dilution analysis of SCID-repopulating cells (SRC) in NSG mice; format: in vivo; settings: for No. of mice with human cell chimerism/total number of mice transplanted: 12 to 13 weeks
Experimental: The frequency of human SRCs in PCs and the progeny of an equivalent number of CD34+ cells that were expanded under control conditions or in the presence of VPA were analyzed by limiting dilution analysis as described previously (Boitano et al., “Aryl Hydrocarbon Receptor Antagonists Promote the Expansion of Human Hematopoietic Stem Cells,” Science 329:1345-1348 (2010), which is hereby incorporated by reference in its entirety). Increasing numbers of PCs (50, 250, 500, 2,500, 5,000) or the progeny of an equivalent number of PCs cultured with VPA for 7 days or under control conditions were infused into NSG mice (n=111). The data from the limiting dilution experiments were pooled and analyzed by applying Poisson statistics to the single-hit model (n=111). The frequency was calculated using L-Calc software (StemCell Technologies Inc.) and plotted using ELDA software (bioinf.wehi.edu.au/software/elda/), available at the Walter and Eliza Hall Bioinformatics Institute of Medical Research. The tog fraction of non-responding values was converted to the percentage of negative mice using the following formula: percentage of negative mice=e log fraction.

Compound: CCCC(CCC)C(=O)O [VPA, valproic acid]
- migration of CD34+ cells in response to SDF1 (CB CD34+ cells [1]): significantly greater number of CD34+ cells treated with VPA migrated in response to SDF1
- HDAC3 expression relative to b-ACTIN (%) (HDAC3): 11.4 ± 12.4%
- HDAC4 expression relative to b-ACTIN (%) (HDAC4): 30.5 ± 9.3%
- HDAC6 expression relative to b-ACTIN (%) (HDAC6): 54.2 ± 7.9%
- inhibition of HDAC expression (class I and II HDAC): did not inhibit HDAC expression
- percentage of CD34+ cells expressing NANOG (NANOG; SC cultures): 5.6 ± 1.4^A %
- percentage of CD34+ cells expressing NANOG (NANOG; SF cultures): 57.6 ± 6.8^A %
- percentage of CD34+ cells expressing OCT4 (OCT4; SC cultures): 8.2 ± 1.7^A %
- percentage of CD34+ cells expressing OCT4 (OCT4; SF cultures): 32.9 ± 3.8^A %
- percentage of CD34+ cells expressing SOX2 (SOX2; SC cultures): 3.9 ± 1.9^A %
- percentage of CD34+ cells expressing SOX2 (SOX2; SF cultures): 23.1 ± 6.5^A %
- CD34+CD90+ cells (%) (CB CD34+ cells [2]): 78.6 ± 2.0 %
- Total number of cells/well (CB CD34+ cells [2]): 4.0 × 10^6 ± 0.4 × 10^6 cells/well
- No. of SRCs generated per 1 × 10^6 CD34+ starting cells (NSG mice; Poisson statistics, VPA 7 days): 32,258
- increase in the number of SRCs compared with cells cultured under control conditions (NSG mice; VPA treatment versus control cultures): 299 fold
- increase in the number of SRCs compared with PCs (NSG mice; VPA treatment versus primary CB CD34+ cells): 36 fold
- No. of mice with human cell chimerism/total number of mice transplanted (NSG mice; progeny of 50 CD34+ cells): 8/10
- No. of mice with human cell chimerism/total number of mice transplanted (NSG mice; progeny of 250 CD34+ cells): 10/10
- No. of mice with human cell chimerism/total number of mice transplanted (NSG mice; progeny of 500 CD34+ cells): 8/8
- No. of mice with human cell chimerism/total number of mice transplanted (NSG mice; progeny of 2,500 CD34+ cells): 7/7
- No. of mice with human cell chimerism/total number of mice transplanted (NSG mice; progeny of 5,000 CD34+ cells): 7/7
